One assay deals with T1, H1R (Cavia porcellus, UniProt P31389).
T1 construct: from tissue; host or cells: isolated distal ileum of male guinea pigs
Nature of the assay: Ex vivo screening of histamine H1R antagonists on guinea pig ileum, variant without atropine. The note with it: isolated guinea pig ileum, histamine as agonist. The procedure:
The second histamine receptor located in the guinea pig ileum is H1R. […] The H1R antagonistic effect was measured on isolated guinea pig ileum stimulated to contract by histamine.[37] To assess and exclude the influence of the ADS compounds on muscarinic receptors, two test variations were used: one with the addition of 0.05 μM atropine and one without.
Male guinea pigs, weighing 300–400 g, were euthanized by a blow to the neck. A 20–30 cm length of the distal ileum, apart from the terminal 5 cm, was rapidly removed and placed in phosphate buffer at room temperature (pH 7.4) containing (mM) NaCl (136.9), KCl (2.6), KH2PO4 (1.47), Na2HPO4 (9.58), and indomethacin (1 × 10^–6 mol/L). The intraluminal content was rinsed, and the isolated intestine was cut into 1.5–2 cm segments. The preparations were mounted isotonically in a 20 mL organ bath filled with Krebs buffer: composition (mM) NaCl (118), KCl (5.6), MgSO4 (1.18), CaCl2 (2.5), NaH2PO4·H2O (1.28), NaHCO3 (25), glucose (5.55), and indomethacin (3 × 10^–7 mol/L). […] The solution was continuously bubbled with a 95% O2:5% CO2 mixture and maintained at 37 °C under a constant load of 0.5 g (Hugo Sachs Hebel–Messvorsatz (Tl-2)/HF-modem; Hugo Sachs Elektronik, Hugstetten, Germany) connected to a pen recorder (Kipp & Zonen BD41, Delft, Holland). During an equilibration period of 40 min, Krebs buffer was changed every 10 min. The first cumulative concentration–response curve was determined for histamine (10 nM to 10 mM) at increasing concentrations spaced by 3- or 3.3-fold. The second to the fourth (or fifth) curves were measured in the presence of an increasing concentrations of antagonist (incubation time 10 min). The pA2 values were calculated according to Arunlakshana and Schild.[37] Statistical analysis was carried out with the Students’ t test. In all tests, a p < 0.05 was considered statistically significant.

The target in another assay is T2, hM1R (Homo sapiens, UniProt P11229).
T2 construct: host or cells: CHO cells, stably transfected; crude membranes
T2 sequence (P11229 1-460): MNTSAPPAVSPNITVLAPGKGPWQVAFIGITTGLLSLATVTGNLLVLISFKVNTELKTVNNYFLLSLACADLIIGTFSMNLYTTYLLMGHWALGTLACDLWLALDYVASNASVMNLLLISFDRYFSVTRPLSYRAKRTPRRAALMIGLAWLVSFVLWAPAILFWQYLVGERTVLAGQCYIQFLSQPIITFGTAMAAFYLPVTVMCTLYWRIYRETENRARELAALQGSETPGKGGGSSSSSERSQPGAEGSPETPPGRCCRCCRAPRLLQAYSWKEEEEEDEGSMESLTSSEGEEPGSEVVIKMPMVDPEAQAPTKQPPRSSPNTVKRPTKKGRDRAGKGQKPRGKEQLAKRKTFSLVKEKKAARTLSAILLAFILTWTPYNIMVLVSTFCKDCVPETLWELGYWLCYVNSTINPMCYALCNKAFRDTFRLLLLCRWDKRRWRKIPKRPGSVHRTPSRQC
Nature of the assay: hM1R radioligand binding ([3H]NMS, CHO cell membranes). The procedure: To clearly explain the obtained outcome, we engaged the radioligand binding experiment. The hM1–hM5 radioligand binding experiments were performed in the membrane fractions of Chinese hamster ovary cells (CHO) stably expressing human variants of muscarinic receptors. N-[^3H]Methylscopolamine was used as the radiolabeled ligand.[39] Three compounds were selected from ex vivo screening on guinea pig ileum. […] This compound is also not completely selective for the remaining muscarinic receptor subtypes with −log Ki values over 6. […] It is also a potent muscarinic M1R antagonist, and the M1R/M2R selectivity ratio is <10. It is worth noting that such nonspecific anticholinergics are often associated with neuropsychiatric and cognitive disturbances and that nonselective muscarinic M1R/M2R antagonists, such as scopolamine, can produce cognitive deficits. Further structural modifications of ADS10227 should be used to increase selectivity toward the M2R, as these may present fewer potential side effects associated with the activation of the phospholipase C signaling pathway.
The culture was derived from CHO cells stably transfected with the genes of human variants of muscarinic receptors. These were purchased from Missouri S&T cDNA Resource Center (Rolla, MO, USA). Cell cultures and crude membranes were prepared as described previously.[45] The cells were grown to confluence in 75 cm^2 flasks in Dulbecco’s modified Eagle’s medium (DMEM) supplemented with 10% fetal bovine serum, and 2 million cells were subcultured to 100 mm Petri dishes. The medium was supplemented with 5 mM butyrate for the last 24 h of cultivation to increase receptor expression. Cells were detached by mild trypsinization on day 5 after subculture. Detached cells were washed twice in 50 mL of phosphate-buffered saline and 3 min centrifugation at 250g. […]
All radioligand binding experiments were optimized and carried out according to general guidelines.[39] […] N-Methylscopolamine binding was measured directly in saturation experiments using six concentrations (30–1000 pM) of [^3H]NMS during incubation for 1 h (M2R), 3 h (M1R, M3R, and M4R), or 5 h (M5R). For calculations of the equilibrium dissociation constant (KD), concentrations of free [^3H]NMS were calculated by subtraction of bound radioactivity from total radioactivity in the sample and fitting eq 1 (Experimental Data analysis section). The binding of the tested ligands was determined in competition experiments with 100 pM [^3H]NMS. […] Nonspecific binding was determined in the presence of 1 μM unlabeled atropine. […]

Setting [1] is: read-out: H1R pA2 gpi ± sem (converted).
[2] abbreviates: read-out: hM1R -log(Ki) ± sem (converted).

Read-outs that look alike come from different tables or passages of the source.

T1 sequence (P31389 whole entry): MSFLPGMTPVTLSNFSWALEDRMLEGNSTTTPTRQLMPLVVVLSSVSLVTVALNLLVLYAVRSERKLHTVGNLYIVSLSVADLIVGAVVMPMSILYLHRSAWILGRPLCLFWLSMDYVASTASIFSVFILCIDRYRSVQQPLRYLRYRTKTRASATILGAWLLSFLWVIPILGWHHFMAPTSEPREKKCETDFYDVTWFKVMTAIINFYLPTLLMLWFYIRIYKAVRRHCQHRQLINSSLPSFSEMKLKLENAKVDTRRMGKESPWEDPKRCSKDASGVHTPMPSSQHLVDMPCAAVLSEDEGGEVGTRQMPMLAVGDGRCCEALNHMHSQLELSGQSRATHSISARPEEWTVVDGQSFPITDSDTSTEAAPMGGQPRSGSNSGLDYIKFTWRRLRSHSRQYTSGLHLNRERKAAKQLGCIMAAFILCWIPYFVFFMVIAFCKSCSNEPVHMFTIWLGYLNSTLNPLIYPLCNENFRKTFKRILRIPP

One may read the Ki as a measure of affinity in units of concentration, obtained from inhibition or displacement. For `N=C(N)N(CCCCN1CCN(CCCCCCCOc2ccccc2)CC1)Cc1ccccc1` [ADS1017], the Kb on H1R (H1R pA2 gpi ± sem) is 331 nM. The Ki at hM1R (hM1R -log(Ki) ± sem) is 141 nM.
Regarding `N=C(N)N(CCCCN1CCN(C[C@H]2CC[C@@H](COc3ccccc3)CC2)CC1)Cc1ccccc1` [ADS10227, 1-{4-{4-{[4-(phenoxymethyl)cyclohexyl]methyl}piperazin-1-yl}but-1-yl}-1-(benzyl)guanidine], the Kb on H1R (setting [1]) was 70.8 nM. Moreover, at hM1R (setting [2]), the Ki was 19.5 nM.
As to `[H]/N=C(/N)N(CCCCN1CCN(CC2CCC(COc3ccccc3)CC2)CC1)Cc1ccc(C(F)(F)F)cc1` (stereo not shown) [ADS10239], the Kb at H1R (setting [1]) was 110 nM. Besides, the values for the Ki at hM1R (read-out: affinity to hM1R (Ki)) and on hM1R (setting [2]) were 45 nM and 46.8 nM, respectively.

For the origin of these results see publication PMC8291587, “Guanidine Derivatives: How Simple Structural Modification of Histamine H3R Antagonists Has Led to the Discovery of Potent Muscarinic M2R/M4R Antagonists” (ACS Chemical Neuroscience, 2021).
